This is an account of results in patent publication US9862716B2, “TRKA kinase inhibitors, compositions and methods thereof” (Merck Sharp & Dohme Corp., priority 2014, dated 2018).

In this test the target is T1, human TrkA receptor (Homo sapiens, UniProt P04629).
T1 construct: host or cells: U2OS cells (PathHunter cell line)
T1 sequence (P04629 33-796): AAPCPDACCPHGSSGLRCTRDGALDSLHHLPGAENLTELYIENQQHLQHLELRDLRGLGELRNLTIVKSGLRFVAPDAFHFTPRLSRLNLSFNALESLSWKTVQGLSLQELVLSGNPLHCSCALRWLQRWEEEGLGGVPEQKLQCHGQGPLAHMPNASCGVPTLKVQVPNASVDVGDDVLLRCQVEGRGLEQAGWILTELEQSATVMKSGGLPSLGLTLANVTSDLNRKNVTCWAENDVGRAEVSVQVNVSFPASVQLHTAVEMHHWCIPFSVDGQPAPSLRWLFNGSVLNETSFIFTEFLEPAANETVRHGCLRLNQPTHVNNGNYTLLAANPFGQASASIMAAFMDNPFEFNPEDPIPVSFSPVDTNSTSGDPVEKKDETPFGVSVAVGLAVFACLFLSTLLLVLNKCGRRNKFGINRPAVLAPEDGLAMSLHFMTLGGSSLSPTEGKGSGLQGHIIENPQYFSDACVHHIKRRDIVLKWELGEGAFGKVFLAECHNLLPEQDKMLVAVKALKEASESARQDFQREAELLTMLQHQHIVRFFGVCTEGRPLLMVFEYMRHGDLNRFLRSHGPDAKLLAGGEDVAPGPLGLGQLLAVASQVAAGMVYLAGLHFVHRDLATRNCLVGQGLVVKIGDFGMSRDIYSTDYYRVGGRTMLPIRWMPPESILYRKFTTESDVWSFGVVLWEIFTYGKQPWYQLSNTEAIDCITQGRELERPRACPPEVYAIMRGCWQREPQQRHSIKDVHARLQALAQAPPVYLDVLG
The test can be described thus: DiscoverX PathHunter TrkA functional assay (NGF-stimulated U2OS cells). The format is cell-based. The note with it: U2OS cells expressing human TrkA-PK, Shc1-EA and p75NTR; compound 1 h, then NGF at ~80% of maximal response for 3 h; luminescence.
Experimental: TrkA functional activity was measured using a DiscoverX PathHunter assay. In this assay, U2OS cells express the human TrkA receptor as a fusion with the weakly complementing fragment of B-galactosidase, which DiscoverX calls “Prolink (PK)”; additionally, Shc1 is fused with a larger fragment, which is called “Enzyme Acceptor (EA)”. Activation of the TrkA receptor, upon NGF addition, results in the kinase domain being phosphorylated, resulting in subsequent recruitment of Shc1-EA protein. That recruitment results in an active B-galactosidase enzyme that is detected by addition of a chemiluminescent substrate. The human p75^NTR protein was also expressed as a co-receptor for NGF.
All reagents were purchased from DiscoverX, except for the receptor agonists (NGF, BDNF, NT3) which were purchased from Peprotech. Cells were expanded and frozen into cryovials, and stored in the vapor phase of liquid nitrogen, and thawed immediately before use. Thawed cells were added to a 384-well plate at 7500 cells/well, and allowed to incubate overnight. Compound at various concentrations was added the following morning and allowed to incubate on cells for 1 h. Then, NGF was added at a concentration sufficient to elicit ˜80% of a maximal response and allowed to incubate for 3 h at ambient temperature. DiscoverX PathHunter detection reagent was then added and the plate was further incubated for 1 h in the dark. The plate was then read via luminescence on the Perkin Elmer Envision.
Usually IC50 stands for the point on the concentration scale where inhibition reaches its midpoint. Consider `C[C@@H](O)c1ccn2c(NC(=O)c3ccc(C(F)(F)F)c(-c4ccn(C)n4)c3)c(-c3ccccc3)nc2c1` (single isomer, unassigned) [Compound 42], for which the IC50 was 0.79 nM.

As for `CC(O)c1ccc2nc(-c3ccccc3)c(NC(=O)c3ccc(C(F)(F)F)c(-c4ccn(C)n4)c3)n2c1` (single isomer, unassigned) [Compound 48, (R or S)-N-[6-(1-hydroxyethyl)-2-phenylimidazo[1,2-a]pyridin-3-yl]-3-(1-methyl-1H-pyrazol-3-yl)-4-(trifluoromethyl) benzamide], the IC50 was 1.9 nM.

`Cn1ccc(-c2cc(C(=O)Nc3c(-c4ccccc4)nc4cc(C(O)CO)ccn34)ccc2C(F)(F)F)n1` (single isomer, unassigned) [Compound 49, (R or S)-N-[7-(1,2-dihydroxyethyl)-2-phenylimidazo[1,2-a]pyridin-3-yl]-3-(1-methyl-1H-pyrazol-3-yl)-4-(trifluoromethyl) benzamide] registered an IC50 of 0.51 nM.

`CC(c1ccn2c(NC(=O)c3cc(-c4ccn(C)n4)c(C(F)(F)F)cc3F)c(-c3ccccc3)nc2c1)N(C)C` (single isomer, unassigned) [Compound 51, (R or S)-N-{7-[1-(dimethylamino)ethyl]-2-phenylimidazo[1,2-a]pyridin-3-yl}-2-fluoro-5-(1-methyl-1H-pyrazol-3-yl)-4-(trifluoromethyl) benzamide] showed an IC50 of 3.5 nM.

`Cn1ccc(-c2cc(C(=O)Nc3c(-c4ccccc4)nc4ccc(C(O)CO)cn34)ccc2C(F)(F)F)n1` (single isomer, unassigned) [Compound 52, (R or S)-N-[6-(1,2-dihydroxyethyl)-2-phenylimidazo[1,2-a]pyridin-3-yl]-3-(1-methyl-1H-pyrazol-3-yl)-4-(trifluoromethyl) benzamide] displayed an IC50 of 4.9 nM.

The compound `CC(O)c1ccn2c(NC(=O)c3cc(-c4ccn(C)n4)c(C(F)(F)F)cc3F)c(-c3ccccc3)nc2c1` (single isomer, unassigned) [Compound 54, (R or S)-2-fluoro-N-[7-(1-hydroxyethyl)-2-phenylimidazo[1,2-a]pyridin-3-yl]-5-(1-methyl-1H-pyrazol-3-yl)-4-(trifluoromethyl) benzamide] had an IC50 of 0.4 nM.

Take `CC(O)c1ccn2c(NC(=O)c3cc(-c4ccn(C)n4)c(C(F)(F)F)cc3F)c(-c3ccccc3)nc2c1` (single isomer, unassigned) [Compound 55, (R or S)-2-fluoro-N-[7-(1-hydroxyethyl)-2-phenylimidazo[1,2-a]pyridin-3-yl]-5-(1-methyl-1H-pyrazol-3-yl)-4-(trifluoromethyl) benzamide]: the 50% inhibitory concentration (IC50) was 0.37 nM.

In turn, `CC(c1ccn2c(NC(=O)c3ccc(C(F)(F)F)c(-c4ccn(C)n4)c3)c(-c3ccccc3)nc2c1)N(C)C` (single isomer, unassigned) [Compound 56, (R or S)-N-{7-[1-(dimethylamino)ethyl]-2-phenylimidazo[1,2-a]pyridin-3-yl}-3-(1-methyl-1H-pyrazol-3-yl)-4-(trifluoromethyl) benzamide] came in with an IC50 of 1 nM.

Compound `CC(O)c1ccn2c(NC(=O)c3cc(-c4ncccn4)c(C(F)(F)F)cc3F)c(-c3ccccc3)nc2c1` (single isomer, unassigned) [Compound 57, (R or S)-2-fluoro-N-[7-(1-hydroxyethyl)-2-phenylimidazo[1,2-a]pyridin-3-yl]-5-pyrimidin-2-yl-4-(trifluoromethyl) benzamide] showed an IC50 of 1.1 nM. The IC50 values of the last two compounds are within 1.5-fold of each other.

As to `CC(O)c1ccn2c(NC(=O)c3cc(-c4ncccn4)c(C(F)(F)F)cc3F)c(-c3ccccc3)nc2c1` (single isomer, unassigned) [Compound 58, (R or S)-2-fluoro-N-[7-(1-hydroxyethyl)-2-phenylimidazo[1,2-a]pyridin-3-yl]-5-pyrimidin-2-yl-4-(trifluoromethyl) benzamide], the IC50 turned out to be 0.92 nM.

As for `Cc1coc(-c2cc(C(=O)Nc3c(-c4ccccc4)nc4cc(C(C)O)ccn34)ccc2C(F)(F)F)n1` (single isomer, unassigned) [Compound 61, (R or S)-N-[7-(1-hydroxyethyl)-2-phenylimidazo[1,2-a]pyridin-3-yl]-3-(4-methyl-1,3-oxazol-2-yl)-4-(trifluoromethyl) benzamide], the IC50 amounted to 2.4 nM. This IC50 lies about 2.6-fold higher than the previous one.

For the compound `Cc1coc(-c2cc(C(=O)Nc3c(-c4ccccc4)nc4cc(C(C)O)ccn34)ccc2C(F)(F)F)n1` (single isomer, unassigned) [Compound 62, (R or S)-N-[7-(1-hydroxyethyl)-2-phenylimidazo[1,2-a]pyridin-3-yl]-3-(4-methyl-1,3-oxazol-2-yl)-4-(trifluoromethyl) benzamide], the IC50 turned out to be 1.5 nM.

Consider `Cn1ccc(-c2cc(C(=O)Nc3c(-c4ccccc4)nc4cc(C(O)C(F)(F)F)ccn34)ccc2C(F)(F)F)n1` (single isomer, unassigned) [Compound 63, (R or S)-3-(1-methyl-1H-pyrazol-3-yl)-N-[2-phenyl-7-(2,2,2-trifluoro-1-hydroxyethyl)imidazo[1,2-a]pyridin-3-yl]-4-(trifluoromethyl) benzamide], for which the IC50 is 1.6 nM.

With `Cn1ccc(-c2cc(C(=O)Nc3c(-c4ccccc4)nc4cc(C(O)C(F)(F)F)ccn34)ccc2C(F)(F)F)n1` (single isomer, unassigned) [Compound 64, (R or S)-3-(1-methyl-1H-pyrazol-3-yl)-N-[2-phenyl-7-(2,2,2-trifluoro-1-hydroxyethyl)imidazo[1,2-a]pyridin-3-yl]-4-(trifluoromethyl) benzamide], 1.1 nM corresponded to half-maximal inhibition (IC50).

Take `Cn1ccc(-c2cc(C(=O)Nc3c(-c4ccccc4)nc4ccc(C(O)C(F)(F)F)cn34)ccc2C(F)(F)F)n1` (single isomer, unassigned) [Compound 65, (R or S)-3-(1-methyl-1H-pyrazol-3-yl)-N-[2-phenyl-6-(2,2,2-trifluoro-1-hydroxyethyl)imidazo[1,2-a]pyridin-3-yl]-4-(trifluoromethyl) benzamide]: 12 nM corresponded to half-maximal inhibition (IC50).

With `Cn1ccc(-c2cc(C(=O)Nc3c(-c4ccccc4)nc4ccc(C(O)C(F)(F)F)cn34)ccc2C(F)(F)F)n1` (single isomer, unassigned) [Compound 66, (R or S)-3-(1-methyl-1H-pyrazol-3-yl)-N-[2-phenyl-6-(2,2,2-trifluoro-1-hydroxyethyl)imidazo[1,2-a]pyridin-3-yl]-4-(trifluoromethyl) benzamide], it took 4.5 nM to reach half-maximal inhibition (IC50).

Take `CC(O)c1ccn2c(NC(=O)c3ccc(C(F)(F)F)c(-c4ncccn4)c3)c(-c3ccccc3)nc2c1` (single isomer, unassigned) [Compound 67, (R or S)-N-[7-(1-hydroxyethyl)-2-phenylimidazo[1,2-a]pyridin-3-yl]-3-pyrimidin-2-yl-4-(trifluoromethyl) benzamide]: the IC50 turned out to be 5.1 nM.

On to `CC(O)c1ccn2c(NC(=O)c3cc(-c4cc[nH]n4)c(C(F)(F)F)cc3F)c(-c3ccccc3)nc2c1` (single isomer, unassigned) [Compound 73, (R or S)-2-fluoro-N-[7-(1-hydroxyethyl)-2-phenylimidazo[1,2-a]pyridin-3-yl]-5-(1H-pyrazol-3-yl)-4-(trifluoromethyl) benzamide], for which the IC50 came out at 1.4 nM. This IC50 is about 3.6-fold lower than that of the compound before.

`CC(O)c1ccn2c(NC(=O)c3cc(-c4cc[nH]n4)c(C(F)(F)F)cc3F)c(-c3ccccc3)nc2c1` (single isomer, unassigned) [Compound 74, (R or S)-2-fluoro-N-[7-(1-hydroxyethyl)-2-phenylimidazo[1,2-a]pyridin-3-yl]-5-(1H-pyrazol-3-yl)-4-(trifluoromethyl) benzamide] showed an IC50 of 1.8 nM. The IC50 values of the last two compounds are within 1.5-fold of each other.

Compound `CC(O)c1ccn2c(NC(=O)c3ccc(C(F)(F)F)c(-c4ccn(C(F)F)n4)c3)c(-c3ccccc3)nc2c1` (single isomer, unassigned) [Compound 77, (R or S)-3-[1-(difluoromethyl)-1H-pyrazol-3-yl]-N-[7-(1-hydroxyethyl)-2-phenylimidazo[1,2-a]pyridin-3-yl]-4-(trifluoromethyl) benzamide] had an IC50 of 4 nM.

`CC(O)c1ccn2c(NC(=O)c3ccc(C(F)(F)F)c(-c4ccn(C(F)F)n4)c3)c(-c3ccccc3)nc2c1` (single isomer, unassigned) [Compound 78, (R or S)-3-[1-(difluoromethyl)-1H-pyrazol-3-yl]-N-[7-(1-hydroxyethyl)-2-phenylimidazo[1,2-a]pyridin-3-yl]-4-(trifluoromethyl) benzamide] returned a concentration for half-maximal inhibition (IC50) of 4.8 nM.

The compound `CC(O)c1ccc2[nH]c(-c3ccccc3)c(NC(=O)c3cc(-c4ncccn4)c(C(F)(F)F)cc3F)c2c1` (single isomer, unassigned) [Compound 94, (R or S)-2-fluoro-N-[5-(1-hydroxyethyl)-2-phenyl-1H-indol-3-yl]-5-pyrimidin-2-yl-4-(trifluoromethyl) benzamide] returned a half-maximal inhibitory concentration (IC50) of 6.5 nM.

As to `CC(O)c1ccc2[nH]c(-c3ccccc3)c(NC(=O)c3cc(-c4ncccn4)c(C(F)(F)F)cc3F)c2c1` (single isomer, unassigned) [Compound 95, (R or S)-2-fluoro-N-[5-(1-hydroxyethyl)-2-phenyl-1H-indol-3-yl]-5-pyrimidin-2-yl-4-(trifluoromethyl) benzamide], the IC50 came to 4.9 nM.

As for `CC(O)c1ccn2nc(-c3ccccc3)c(NC(=O)c3ccc(C(F)(F)F)c(-c4ccn(C)n4)c3)c2c1` (single isomer, unassigned) [Compound 97, (R or S)-N-[5-(1-hydroxyethyl)-2-phenylpyrazolo[1,5-a]pyridin-3-yl]-3-(1-methyl-1H-pyrazol-3-yl)-4-(trifluoromethyl) benzamide], the IC50 is 1.9 nM.

`CC(O)c1ccn2nc(-c3ccccc3)c(NC(=O)c3ccc(C(F)(F)F)c(-c4ccn(C)n4)c3)c2c1` (single isomer, unassigned) [Compound 98, (R or S)-N-[5-(1-hydroxyethyl)-2-phenylpyrazolo[1,5-a]pyridin-3-yl]-3-(1-methyl-1H-pyrazol-3-yl)-4-(trifluoromethyl) benzamide] returned a concentration for half-maximal inhibition (IC50) of 3.3 nM.
